Assay results from patent publication US20240374631A1, “A COMPOSITION FOR IMPROVING GUT MICROBIOTA, BEHAVIOURAL PATTERN, ALPHA-SYNUCLEIN LEVELS, SLEEP PATTERN AND/OR SERUM MELATONIN” (GN Corporation Co Ltd, priority 2021, published 2024).

Test system: fecal metabolome
Experiment: Fecal metabolome analysis (GC-MS peak height, PCA, OPLS-DA) in STAM model of NASH
Format: in vivo, C57BL/6J mice

CCCc1nc2c(C)cc(-c3nc4ccccc4n3C)cc2n1Cc1ccc(-c2ccccc2C(=O)O)cc1 [Telmisartan]
Peak height after normalization, 2-Aminobutyric acid-2TMS (Difference): 17954.52
Peak height after normalization, 2-Hydroxyisobutyric acid-2TMS (Difference): 133880.36
Peak height after normalization, 3-Aminoglutaric acid-3TMS (Difference): 8627.53
Peak height after normalization, 3-Hydroxybutyric acid-2TMS (Difference): −4608.17
Peak height after normalization, 5-Aminovaleric acid-3TMS (Difference): 26394.02
Peak height after normalization, Glutamic acid-3TMS (Difference): 382709.41
Peak height after normalization, Glutamine-3TMS (Difference): 30745.13
Peak height after normalization, Glycine-3TMS (Difference): 109331.29
Peak height after normalization, Hypoxanthine-2TMS (Difference): 23680.72
Peak height after normalization, Lactic acid-2TMS (Difference): −35605.88
Peak height after normalization, Leucine-2TMS (Difference): 267732.46
Peak height after normalization, Lysine-4TMS (Difference): 360841.28
Peak height after normalization, Malic acid-3TMS (Difference): −16354.66
Peak height after normalization, Norvaline-TMS (Difference): 37744.18
Peak height after normalization, Phosphoric acid-3TMS (Difference): 15228.48
Peak height after normalization, Proline-2TMS (Difference): 52750.51
Peak height after normalization, Succinic acid-2TMS (Difference): 50806.69
Peak height after normalization, Taurine-3TMS (Difference): 9869.33
Peak height after normalization, Tyrosine-3TMS (Difference): 116635.49
Peak height after normalization, Uracil-2TMS (Difference): −3276.22
Peak height after normalization, Valine-2TMS (Difference): 267808.23
Peak height after normalization, 2-Aminobutyric acid-2TMS (Post): 43700.57
Peak height after normalization, 3-Aminoglutaric acid-3TMS (Post): 12436.04
Peak height after normalization, 3-Hydroxybutyric acid-2TMS (Post): 10891.34
Peak height after normalization, Alanine-2TMS (Post): 1268525.27
Peak height after normalization, Glycerol-3TMS (Post): 324467.91
Peak height after normalization, Glycine-3TMS (Post): 288456.14
Peak height after normalization, Isoleucine-2TMS (Post): 381173.16
Peak height after normalization, Lactic acid-2TMS (Post): 36363.66
Peak height after normalization, Leucine-2TMS (Post): 631954.96
Peak height after normalization, Lysine-4TMS (Post): 952876.14
Peak height after normalization, Malic acid-3TMS (Post): 38544.73
Peak height after normalization, Methionine-2TMS (Post): 168797.44
Peak height after normalization, Norvaline-TMS (Post): 110365.67
Peak height after normalization, Phenylalamine-2TMS (Post): 342996.16
Peak height after normalization, Phosphoric acid-3TMS (Post): 122301.92
Peak height after normalization, Proline-2TMS (Post): 151136.53
Peak height after normalization, Taurine-3TMS (Post): 24726.77
Peak height after normalization, Tryptophan-3TMS (Post): 28678.00
Peak height after normalization, Uracil-2TMS (Post): 71567.16
Peak height after normalization, Valine-2TMS (Post): 521841.20
Peak height after normalization, Xanthine-3TMS (Post): 103194.40
Peak height after normalization, 3-Aminoglutaric acid-3TMS (Pre): 3808.51
Peak height after normalization, 3-Hydroxybutyric acid-2TMS (Pre): 15499.52
Peak height after normalization, 5-Aminovaleric acid-3TMS (Pre): 28517.91
Peak height after normalization, 5-Oxoproline-2TMS (Pre): 113169.35
Peak height after normalization, #Sz,899;-3TMS (Pre): 124526.34
Peak height after normalization, Aspartic acid-3TMS (Pre): 183416.60
Peak height after normalization, Glycerol-3TMS (Pre): 283873.86
Peak height after normalization, Hypoxanthine-2TMS (Pre): 33144.25
Peak height after normalization, Isoleucine-2TMS (Pre): 175687.57
Peak height after normalization, Lactic acid-2TMS (Pre): 71969.33
Peak height after normalization, Lysine-4TMS (Pre): 592034.86
Peak height after normalization, Malic acid-3TMS (Pre): 54899.38
Peak height after normalization, Methionine-2TMS (Pre): 103825.98
Peak height after normalization, Norvaline-TMS (Pre): 72621.50
Peak height after normalization, Phenylalamine-2TMS (Pre): 208441.78
Peak height after normalization, Phosphoric acid-3TMS (Pre): 107073.44
Peak height after normalization, Succinic acid-2TMS (Pre): 263097.91
Peak height after normalization, Taurine-3TMS (Pre): 14857.44
Peak height after normalization, Tryptophan-3TMS (Pre): 16169.30
Peak height after normalization, Tyrosine-3TMS (Pre): 309190.46
Peak height after normalization, Uracil-2TMS (Pre): 74843.38
Peak height after normalization, Valine-2TMS (Pre): 254032.97
Peak height after normalization, Xanthine-3TMS (Pre): 101684.60
